Entries after “also recorded” stand apart in the source; their conditions may differ. Where two headings read alike, the source gives them in different places.
Key:
ATP synthesis = experiment: cellular ATP synthesis (FIG. 15); type: cell-based
Experimental: The following four compounds were exposed to cells, and ATP synthesis measured: […]

[1] = system: panel of cells in Table 7; experiment: antiproliferation of Bz-Cl against the panel of cells, 3 d; type: cell-based; conditions: after 3 d
[2] = system: ornithine decarboxylase (ODC); experiment: ODC activity in treated cells (conversion of 3H-ornithine to putrescine); type: cell-based, human; conditions: cells treated for 4 h
Experimental: In these experiments, the conversion of ornithine to putrescine was quantified using ^3H-ornithine. For comparisons, control cells were treated with vehicle control or difluoromethyl ornithine (DFMO), a potent inhibitor of ornithine decarboxylase (like Bz-423, DFMO is a potent anti-proliferative agent). […] The reduction in ODC activity was paralleled by a decrease in ODC protein levels measured under the same conditions.
As described above, Bz-423 induced apoptosis was signaled by an ROS response that arose from MRC complex III as a result of the state 3 to 4 transition. It was next sought to determine if the ROS response, critical for apoptosis, also mediated these effects on ODC. If the ROS was required for the decrease in ODC activity, it would likewise be implicated as potentially part of the anti-proliferative response to Bz-423. To test this, Ramos cells were treated with Bz-423, DFMO, or vehicle control for 4 h. In parallel, a second group of cells was pre-incubated with MnTBAP to limit the ROS and then cultured with Bz-423, DFMO, and vehicle control.

Ramos cells [3] = experiment: cell culture cytotoxicity assays; type: cell-based, human
Experimental: Like most 1,4-benzodiazepines, Bz-423 binds strongly to bovine serum albumin (BSA), which reduces the effective concentration of drug free in solution. For example, in tissue culture media containing 10% (v/v) fetal bovine serum (FBS), ca. 99% of the drug is bound to BSA. Therefore, cell culture cytotoxicity assays are conducted in media with 2% FBS to reduce binding to BSA and increase the free [Bz-423]. Under these conditions, the dose response-curve is quite sharp such that there is a limited concentration range at which Bz-423 is only partly effective. Since some benzodiazepines are known to have anti-proliferative properties, the effect of Bz-423 at concentrations <ED50 were carefully analyzed and observed that in addition to inducing apoptosis, Bz-423 prevented cell growth after 3 d in culture. In these low serum conditions, the cytotoxic and anti-proliferative effects overlapped making it difficult to study each effect independently. […] While higher amounts of drug may also block proliferation, it caused apoptosis well before the effects on proliferation could be observed.
To confirm the decrease in cell number relative to control cells after 3 d of treatment is due to decreased proliferation and not cell death balanced by proliferation, in addition to cell counting, cell divisions were studied. PKH-67 is a fluorescent probe that binds irreversibly to cell membranes and upon cell division is partitioned equally between the daughter cells, making it possible to quantify cell division by flow cytometry. Ramos cells stained with PKH67 and treated with Bz-423 had fewer cell divisions at sub-cytotoxic concentrations which confirmed that the decrease in cell number was due to anti-proliferative affects and not cell death. To determine if Bz-423 induced anti-proliferation was specific to Ramos cells, cell counting and cell cycle experiments were done in other B cell lines and cell lines derived from solid tumors.

human OSCP = molecular target: T1, human OSCP (Homo sapiens, UniProt P48047); experiment: OSCP binding by quenching of intrinsic protein fluorescence
T1 construct: made in house; host or cells: E. coli
Description: To determine if Bz-423 indeed binds to the OSCP and the affinity of the interaction, human OSCP was overexpressed in E. coli. […] Bz-423 is the only known inhibitor of the ATPase that functions through binding to the OSCP.

[4] = molecular target: T2, mitochondrial F1F0-ATPase (Bos taurus, UniProt P13621+P32876); experiment: biochemical; design: species or system bovine; conditions: for Ki: oligomycin
Jurkat cells [5] = experiment: early O2− (ROS) response, 1 h; type: cell-based
Experimental: (§1) To detect O2^−, cells are incubated with DHE (10 μM) for 30 min at 37° C. and are analyzed by flow cytometry to measure ethidium fluorescence. Flow analysis of mitochondrial transmembrane potential (ψm) is conducted by labeling cells with DiOC6(3) (20 nM) for 15 min at 37 degrees C. A positive control for disruption of ψm is established using carbonyl cyanide m-chlorophenylhydrazone (CCCP, 50 μM). Caspase activation assays are performed with FAM-VAD-fluoromethylketone. Processing of the substrate is evaluated by flow cytometry.
(§2) Since an early mitochondrial superoxide (O2^−) mediates apoptosis induced by Bz-423, the O2^− response of cells 1 h following incubation with drug was examined, as well as cell death at 24 h, as previously described (see, e.g., Blatt, N. B., et al., 2002 J Clin Invest 110, 1123-1132; incorporated herein by reference in its entirety).

Ramos B cells = experiment: cell death of Ramos B cells, propidium iodide exclusion by flow cytometry, 24 h; type: cell-based, human; conditions: Homo sapiens
[6] = molecular target: T3, F1F0-ATPase, OSCP subunit (UniProt P48047); experiment: F1F0-ATPase activity in SMPs reconstituted in the presence or absence of the OSCP; type: biochemical, bovine; design: not tied in print to the reconstitution assay; conditions: FIG. 19C
T3 sequence (P48047 1-213): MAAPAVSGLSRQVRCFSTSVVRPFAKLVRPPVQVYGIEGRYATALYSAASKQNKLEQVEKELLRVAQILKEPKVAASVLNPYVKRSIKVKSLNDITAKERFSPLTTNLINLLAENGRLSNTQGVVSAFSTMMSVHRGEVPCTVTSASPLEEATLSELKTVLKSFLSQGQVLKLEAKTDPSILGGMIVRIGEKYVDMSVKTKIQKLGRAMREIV
Experimental: An additional OSCP binding assay was conducted. […] Benzodiazepine derivative compounds that bind the OSCP include, but are not limited to: […]

Jurkat cells [7] = experiment: cell death at 24 h; type: cell-based
Experimental: as §2

[8] = molecular target: T2, mitochondrial F1F0-ATPase; experiment: biochemical; design: species or system bovine; conditions: for Ki: oligomycin; remark: listed apart in the source
Ramos cells [9] = experiment: early O2− (ROS) response, 1 h; type: cell-based, human; conditions: Homo sapiens, Ramos, 1 h; read-out: ROS EC50 (μM), Ramos cells
Experimental: as §1, §2

F1F0-ATPase [10] = molecular target: F1F0-ATPase (Homo sapiens, UniProt P05496+P48047); conditions: read-out: IC50 for oligomycin; cited from earlier work
[11] = rodents, two daily doses; cited from earlier work
F1F0-ATPase [12] = molecular target: F1F0-ATPase (Bos taurus, UniProt P13621+P32876); experiment: off-rate measurements, recovery of ATP synthesis of SMPs after dilution; type: biochemical, bovine
Experimental: Inhibition of Na,K-ATPases with oligomycin is time-dependent and results from a slow rate of dissociation from the enzyme (0.05 s^−1) (see, e.g., Esmann, M. (1991) Biochim. Biophys. Acta 1064, 31-36; herein incorporated by reference in its entirety). Since time-dependent inhibition can have profound effects on the function of the F1F0-ATPase, the off-rate of Bz-423 and oligomycin during ATP synthesis was examined. […] Inhibited SMP suspensions were diluted into buffer and activity was measured over time. Enzymatic activity of the SMPs incubated with Bz-423 had recovered to 90% of control at 10 s, indicating rapid dissociation (see, FIG. 18). In contrast, the activity of the enzyme incubated with oligomycin was only 54% of the uninhibited activity at 10 s, and increased for several minutes after dilution (see, FIG. 18). The time-dependence of the recovery of activity fit to a single exponential yielding an apparent dissociation rate constant for Bz-423>0.3 s^−1. However, dissociation of oligomycin was complex and a portion of the inhibitor dissociated at least 10-fold slower, consistent with a tight-binding, slow-dissociating inhibitor (see, e.g., Morrison, J. F., and Walsh, C. T. (1988) Adv. Enzymol. Relat. Areas Mol. Biol. 61, 201-301; herein incorporated by reference in its entirety). Presumably, the constraints of a high-affinity inhibitor dissociating from the membrane embedded proton channel presented a significant barrier for dissociation resulting in a slow off-rate.
Off-rate measurements. Rate of inhibition of ATP synthesis was measured as described above with the following changes. A 20 μL aliquot of SMPs (1 mg mL^−1) in synthesis buffer (with 10 mM K2HPO4) was added to each well of a 96-well plate containing 2.5 μL of 100× drug (14 μM Bz-423 and 35 nM oligomycin, final) or DMSO vehicle control. The drug was diluted out by adding 200 μL of synthesis buffer to each well. Substratecoupling mixture (25 μL with 1 mM ADP) was added to each well at the indicated time point and the rate of NADP^+ reduction was monitored over time.

Na,K-ATPases = conditions: cited from earlier work
[13] = Jurkat cells, 75 μM PK11195, with or without antioxidant pre-incubation
[14] = hydrolysis, three-dimensional fit
[15] = synthesis, three-dimensional fit

CN1C(=O)C(c2ccccc2)NC(c2ccc(O)cc2)c2cc(Cl)ccc21 (stereo not shown)
inhibition of cellular ATP synthesis (ATP synthesis): did inhibit ATP synthesis

CN1C(=O)C(Cc2ccc3ccccc3c2)N=C(c2ccc(Cl)cc2)c2cc(Cl)ccc21 (stereo not shown) [Bz-Cl]
effect on proliferation compared with Bz-423 [1]: reduced proliferation to a similar extent as Bz-423
effect on ODC activity [2]: inhibited ODC activity
decrease of cytotoxic activity compared to Bz-423 (Ramos cells [3]): ~80%
Kd (human OSCP): ~5 µM

CCC(C)N(C)C(=O)c1cc2ccccc2c(-c2ccccc2Cl)n1 (stereo not shown) [PK11195]
inhibition of mitochondrial ATPase activity ([4]; 80 μM): do not significantly inhibit mitochondrial ATPase activity
EC50 ([4]; bovine SMPs, read-out: ATPase activity EC50 (μM), Hydrolysis): 230 µM
EC50 (Jurkat cells [5]; Homo sapiens, Jurkat, 1 h, read-out: ROS EC50 (μM), Jurkat cells): 56 µM
% ROS+ (Jurkat cells [5]; [13]): 67.9 ± 5.0%
EC50 (Ramos B cells; Ramos, 24 h, read-out: Cell death EC50 (μM), Ramos cells): 90 µM
EC50 (Ramos B cells; Ramos B cells, 24 h (Table 6), read-out: EC50 (μM), cell death): > 80 µM
dependence of F1F0-ATPase inhibition on the OSCP [6]: more potent inhibitor of F1F0-ATPase activity in the presence of the OSCP
EC50 (Jurkat cells [7]; Homo sapiens, Jurkat, 24 h, read-out: Cell death EC50 (μM), Jurkat cells): 75 µM
% Cell death (Jurkat cells [7]; [13]): 85.5 ± 1.7%
EC50 ([8]; bovine SMPs, read-out: ATPase activity EC50 (μM), Synthesis): 33 µM
EC50 (Ramos cells [9]): 100 µM

CC[C@H]1/C=C/C=C/C[C@@H](C)[C@H](O)[C@@](C)(O)C(=O)[C@@H](C)[C@H](O)[C@@H](C)C(=O)[C@@H](C)[C@H](O)[C@@H](C)/C=C/C(=O)O[C@@H]2[C@H](C)[C@H](CC1)O[C@]1(CC[C@H](C)[C@H](C[C@@H](C)O)O1)[C@H]2C [oligomycin, reference compound]
Mechanism of inhibition ([4]; hydrolysis): noncompetitive inhibitor; also recorded: Non-competitive
nE, cooperativity factor for competitive inhibition constant ([4]; hydrolysis): 1.1 ± 0.3
nES, cooperativity factor for uncompetitive inhibition constant ([4]; hydrolysis): 1.2 ± 0.1
Ki ([4]; hydrolysis, read-out: Ki (E)): 0.011 ± 0.003 µM
Ki ([4]; hydrolysis, read-out: Ki (ES)): 0.013 ± 0.001 µM
K∞ [4, 14]: 0.12 ± 0.02 mM
Vmax [4, 14]: 0.77 ± 0.03 µmol/min/mg
IC50 (F1F0-ATPase [10]): 0.01 µM
Ki ([8]; Ki (E), synthesis): 0.0105 ± 0.0009 µM
Ki ([8]; Ki (ES), synthesis): 0.012 ± 0.001 µM
Mechanism of inhibition ([8]; synthesis): mixed inhibitor
nE, cooperativity factor for competitive inhibition constant ([8]; synthesis): 3.6 ± 0.5
nES, cooperativity factor for uncompetitive inhibition constant ([8]; synthesis): 1.6 ± 0.3
K∞ [8, 15]: 0.12 ± 0.01 mM
Vmax [8, 15]: 0.089 ± 0.003 µmol/min/mg
LD50 for oligomycin [11]: 0.5 mg/kg
slower dissociation of a portion of the inhibitor (F1F0-ATPase [12]): at least 10 fold
reduction of F1F0-ATPase activity at the concentration produced after dilution (F1F0-ATPase [12]; 1.4 μM Bz-423, 3.5 nM oligomycin): 15%
ATP synthesis activity relative to that in the absence of inhibitor (F1F0-ATPase [12]; 14 μM Bz-423 or 35 nM oligomycin): 14%
enzymatic activity recovered after dilution, % of control (F1F0-ATPase [12]; at 10 s after dilution): 54%
rate of dissociation from the enzyme (Na,K-ATPases): 0.05 s⁻¹
